In ChEMBL document CHEMBL3045245, “Synthesis and antitumor activities of certain novel 2-amino-9-(4-halostyryl)-4H-pyrano[3,2-h]quinoline derivatives” (Med Chem Res, 2012):
In brackets after ≈: the same amount, converted by molar mass.

What was measured:
[1] = tested on: HepG2; experiment: Cytotoxicity against Homo sapiens (human) HepG2 cells assessed as cell viability at 6.25 ug/ml after 48 hr by MTT assay; format: functional; conditions: HepG2, 48 h, read-out: Activity
[2] = Cytotoxicity against Homo sapiens (human) HCT cells assessed as cell viability at 3.125 ug/ml after 48 hr by MTT assay; format: functional; conditions: read-out: Activity
[3] = Cytotoxicity against Homo sapiens (human) HCT cells after 48 hr by MTT assay; format: functional, cell-based
[4] = tested on: MCF7; experiment: Cytotoxicity against Homo sapiens (human) MCF7 cells assessed as cell viability at 1.56 ug/ml after 48 hr by MTT assay; format: functional; conditions: MCF7, 48 h, read-out: Activity
[5] = tested on: HepG2; experiment: Cytotoxicity against Homo sapiens (human) HepG2 cells assessed as cell viability at 50 ug/ml after 48 hr by MTT assay; format: functional; conditions: HepG2, 48 h, read-out: Activity
[6] = tested on: HepG2; experiment: Cytotoxicity against Homo sapiens (human) HepG2 cells assessed as cell viability at 12.5 ug/ml after 48 hr by MTT assay; format: functional; conditions: HepG2, 48 h, read-out: Activity
[7] = tested on: HepG2; experiment: Cytotoxicity against Homo sapiens (human) HepG2 cells assessed as cell viability at 25 ug/ml after 48 hr by MTT assay; format: functional; conditions: HepG2, 48 h, read-out: Activity
[8] = tested on: MCF7; experiment: Cytotoxicity against Homo sapiens (human) MCF7 cells assessed as cell viability at 6.25 ug/ml after 48 hr by MTT assay; format: functional; conditions: MCF7, 48 h, read-out: Activity
[9] = tested on: MCF7; experiment: Cytotoxicity against Homo sapiens (human) MCF7 cells assessed as cell viability at 3.125 ug/ml after 48 hr by MTT assay; format: functional; conditions: MCF7, 48 h, read-out: Activity
[10] = Cytotoxicity against Homo sapiens (human) HCT cells assessed as cell viability at 50 ug/ml after 48 hr by MTT assay; format: functional; conditions: read-out: Activity
[11] = Cytotoxicity against Homo sapiens (human) HCT cells assessed as cell viability at 1.56 ug/ml after 48 hr by MTT assay; format: functional; conditions: read-out: Activity
[12] = Cytotoxicity against Homo sapiens (human) HCT cells assessed as cell viability at 25 ug/ml after 48 hr by MTT assay; format: functional; conditions: read-out: Activity
[13] = tested on: HepG2; experiment: Cytotoxicity against Homo sapiens (human) HepG2 cells assessed as cell viability at 3.125 ug/ml after 48 hr by MTT assay; format: functional; conditions: HepG2, 48 h, read-out: Activity
[14] = tested on: MCF7; experiment: Cytotoxicity against Homo sapiens (human) MCF7 cells assessed as cell viability at 12.5 ug/ml after 48 hr by MTT assay; format: functional; conditions: MCF7, 48 h, read-out: Activity
[15] = tested on: HepG2; experiment: Cytotoxicity against Homo sapiens (human) HepG2 cells assessed as cell viability at 1.56 ug/ml after 48 hr by MTT assay; format: functional; conditions: HepG2, 48 h, read-out: Activity
[16] = tested on: MCF7; experiment: Cytotoxicity against Homo sapiens (human) MCF7 cells assessed as cell viability at 50 ug/ml after 48 hr by MTT assay; format: functional; conditions: MCF7, 48 h, read-out: Activity
[17] = tested on: MCF7; experiment: Cytotoxicity against Homo sapiens (human) MCF7 cells after 48 hr by MTT assay; format: functional, cell-based; conditions: MCF7, 48 h
[18] = Cytotoxicity against Homo sapiens (human) HCT cells assessed as cell viability at 12.5 ug/ml after 48 hr by MTT assay; format: functional; conditions: read-out: Activity
[19] = Cytotoxicity against Homo sapiens (human) HCT cells assessed as cell viability at 6.25 ug/ml after 48 hr by MTT assay; format: functional; conditions: read-out: Activity
[20] = tested on: HepG2; experiment: Cytotoxicity against Homo sapiens (human) HepG2 cells after 48 hr by MTT assay; format: functional, cell-based; conditions: HepG2, 48 h
[21] = tested on: MCF7; experiment: Cytotoxicity against Homo sapiens (human) MCF7 cells assessed as cell viability at 25 ug/ml after 48 hr by MTT assay; format: functional; conditions: MCF7, 48 h, read-out: Activity

Structure (SMILES) | viability at 6.25 µg/mL [1] [%] | viability at 3.125 µg/mL [2] [%] | IC50 [3] [µg/mL] | viability at 1.56 µg/mL [4] [%] | viability at 50 µg/mL [5] [%] | viability at 12.5 µg/mL [6] [%] | viability at 25 µg/mL [7] [%] | viability at 6.25 µg/mL [8] [%] | viability at 3.125 µg/mL [9] [%] | viability at 50 µg/mL [10] [%] | viability at 1.56 µg/mL [11] [%] | viability at 25 µg/mL [12] [%] | viability at 3.125 µg/mL [13] [%] | viability at 12.5 µg/mL [14] [%] | viability at 1.56 µg/mL [15] [%] | viability at 50 µg/mL [16] [%] | IC50 [17] [µg/mL] | viability at 12.5 µg/mL [18] [%] | viability at 6.25 µg/mL [19] [%] | IC50 [20] [µg/mL] | further results
CCOC(=O)C1=C(N)Oc2c(ccc3ccc(/C=C/c4ccc(Cl)cc4)nc23)C1c1ccc(Br)cc1 (centres undefined) | 69.7 | 74.3 | 20.4 (≈ 36.3 µM) | 80.9 | 39.8 | 61.9 | 53.4 | 63.5 | 76 | 30.7 | 82.9 | 45.8 | 76.3 | 45.6 | 89.4 | 29.7 | 10.3 (≈ 18.3 µM) | 61.3 | 70.4 | 28.6 (≈ 50.9 µM) | viability at 25 µg/mL [21]: 37.9%
N#CC1=C(N)Oc2c(ccc3ccc(/C=C/c4ccc(Br)cc4)nc23)C1c1ccc(Br)cc1 (centres undefined) | 41.4 | 90.7 | 12.7 (≈ 22.7 µM) | 61.1 | 16 | 34.1 | 25.7 | 40.6 | 53.1 | 24 | 95.7 | 33.5 | 54.8 | 31.7 | 74.3 | 22.4 | 3.9 (≈ 6.97 µM) | 51 | 80.5 | 8.7 (≈ 15.6 µM) | viability at 25 µg/mL [21]: 27.4%
CCOC(=O)C1=C(N)Oc2c(ccc3ccc(/C=C/c4ccc(Br)cc4)nc23)C1c1ccc(Br)cc1 (centres undefined) | 48.6 | 76.6 | 12.8 (≈ 21.1 µM) | 62.3 | 23.4 | 42.2 | 36.1 | 31.6 | 45.5 | 26 | 86 | 31.4 | 61 | 23.8 | 79.6 | 13 | 2.4 (≈ 3.96 µM) | 52.2 | 62.8 | 6.1 (≈ 10.1 µM) | viability at 25 µg/mL [21]: 17.9%
N#CC1=C(N)Oc2c(ccc3ccc(/C=C/c4ccc(Br)cc4)nc23)C1c1ccc(Cl)cc1 (centres undefined) | 53.1 | 89.8 | 10.2 (≈ 19.8 µM) | 80.6 | 25.2 | 39.4 | 29 | 64.7 | 73 | 22.8 | 98 | 30.3 | 64.4 | 53.1 | 77.9 | 29.4 | 15.9 (≈ 30.9 µM) | 41.9 | 74.9 | 7.5 (≈ 14.6 µM) | viability at 25 µg/mL [21]: 41.2%
